# Experimental data: US20250099420A1, “SMALL MOLECULE MODULATORS OF GPR139 COMPLEX” (University of Florida Research Foundation, Incorporated, priority 2022, published 2025)
# Read-outs that look alike come from different tables or passages of the source.
# Legend:
# parental HEK cells = assay: HEK parental Agonist Counterscreen Assay (non-transfected cells); format: cell-based; settings: for Averaged Max % Response (±St. Dev.): activity relative to known control
# Text: The high control for the agonist counterscreen was Forskolin not acetylcholine.
# GPR139 = target: T1, GPR139 (Homo sapiens, UniProt Q6DWJ6); assay: GPR139 Agonist titration / agonist counterscreen assay (calcium detection, HEK-GPR139 cells); format: cell-based; design: expressed in transfected cells; host or cells: HEK Aequorin cells, Maxcyte transient transfection; settings: GPR139 Agonist Activity; for Averaged Max % Response (±St. Dev.): activity relative to known control; for EC50: read-out: EC50
# T1 sequence (Q6DWJ6 1-353): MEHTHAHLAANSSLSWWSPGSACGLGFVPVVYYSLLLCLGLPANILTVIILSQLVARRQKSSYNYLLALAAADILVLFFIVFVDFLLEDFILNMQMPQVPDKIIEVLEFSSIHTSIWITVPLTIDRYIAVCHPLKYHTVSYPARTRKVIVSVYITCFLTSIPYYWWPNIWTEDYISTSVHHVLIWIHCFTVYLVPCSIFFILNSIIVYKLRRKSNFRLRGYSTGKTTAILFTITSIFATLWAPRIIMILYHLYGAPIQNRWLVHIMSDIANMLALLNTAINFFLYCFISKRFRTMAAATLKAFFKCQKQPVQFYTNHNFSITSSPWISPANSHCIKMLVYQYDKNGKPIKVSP
# Experimental: GPR activity was assessed using a calcium detection assay. […] Negative control samples were treated with DMSO. […] Intracellular calcium was measured using Calcium 5.
# [1] = values printed in E-notation without unit
# [2] = Homo sapiens, HEK293, HEK Agonist Activity section of Table 4 (parental HEK counterscreen)
Compound,Lipophilic Efficiency (logD) (parental HEK cells; HEK Agonist Activity),Lipophilic Efficiency (logP) (parental HEK cells; HEK Agonist Activity),Averaged Max % Response (±St. Dev.) (parental HEK cells; HEK Agonist Activity) [%],"EC50 (parental HEK cells; Homo sapiens, HEK293, HEK Agonist Activity, parental non-transfected HEK cells) [nM]",Averaged Max % Response (±St. Dev.) (GPR139) [%],Lipophilic Efficiency (logD) (GPR139; based on logD),Lipophilic Efficiency (logP) (GPR139; based on logP),Hill Slope (GPR139; fitted dose-response curve),Efficiency Ligand (GPR139; ligand efficiency),EC50 (GPR139; [1]) [nM],Lipophilic Efficiency (logD) (parental HEK cells; HEK Agonist Activity section),Lipophilic Efficiency (logP) (parental HEK cells; HEK Agonist Activity section),Averaged Max % Response (±St. Dev.) (parental HEK cells; HEK Agonist Activity section) [%],EC50 (parental HEK cells; [2]) [nM],EC50 (parental HEK cells; HEK Agonist Activity section of Table 4 (parental HEK counterscreen)) [nM],Efficiency Ligand (GPR139),Hill Slope (GPR139),Lipophilic Efficiency (logD) (GPR139),Lipophilic Efficiency (logP) (GPR139),EC50 (GPR139; HEK-GPR139 cells) [nM]
COc1cccc(C(=O)NNC(=O)COc2ccc(C)cc2Br)c1 [SR-01000369718],1.98,1.98,7.35 ± 13.00,> 14100,111.46 ± 12.99,5.36,5.36,0.33,0.48,5.9,,,,,,,,,,
CC(Oc1ccc(Cl)cc1Cl)C(=O)NNC(=O)COc1ccccc1 (stereo not shown) [SR-01000370374],,,,,100.37 ± 4.50,3.80,3.75,0.87,0.39,114,1.71,1.66,4.76 ± 6.67,> 14100,,,,,,
CC(C(=O)NCCn1nnn(-c2ccccc2)c1=O)n1nc2ccccc2n1 (stereo not shown) [SR-01000373848],,,,,97.42 ± 13.41,,,,,,1.47,1.47,7.32 ± 0.96,,> 14100,0.32,0.90,3.07,3.07,354
CCSc1nc2sccn2c(=O)c1C(=O)NC(C)c1ccccc1 (stereo not shown) [SR-01000378352],,,,,93.30 ± 10.83,,,,,,1.53,1.53,8.83 ± 9.35,> 14100,,0.36,1.14,2.89,2.89,616
CS(=O)(=O)c1cccc(C(=O)NCCCN2CCc3ccccc32)c1 [SR-01000387617],,,,,81.90 ± 12.88,,,,,,2.95,2.95,2.04 ± 4.49,> 14100,,0.35,0.75,4.28,4.28,661
O=C(O)c1ccccc1C(=O)c1cccc2ccccc12 [SR-01000391835],,,,,104.57 ± 1.81,5.91,2.52,0.80,0.44,254,4.05,0.66,10.10 ± 5.45,> 18300,,,,,,
CCc1c(C2C(C(=O)OCc3ccccc3)=C(C)CC3=C2C(=O)CCC3)ccc(OC)c1OC (stereo not shown) [SR-01000406098],,,,,80.99 ± 4.70,,,,,,1.55,1.55,7.56 ± 6.15,> 11500,,0.24,1.97,2.46,2.46,
Cc1ccccc1C(=O)NNC(=O)C(C)Oc1ccc(Cl)cc1Cl (stereo not shown) [SR-01000410694],,,,,91.99 ± 13.68,2.98,2.96,1.03,0.41,100,0.98,0.95,10.08 ± 3.68,> 10200,,,,,,
